According to patent US20090111691A1, “Fungicides and Bioregulatory Mixtures” (priority 2005, published 2009):

Test system: Puccinia recondita
Experiment: Curative activity against brown rust of wheat (Puccrt K1), potted wheat seedlings cultivar Kanzler
Format: in vivo
Settings: efficacy in % of untreated control, sprayed 1 day after inoculation, rated after 7 days, read-out: Observed activity (%)
Protocol: The active compounds were prepared separately or jointly as a stock solution with 25 mg of active compound which was made up to 10 ml using a mixture of acetone and/or DMSO and the emulsifier Uniperol® EL (wetting agent having emulsifying and dispersing action based on ethoxylated alkylphenols) in a volume ratio of solvent/emulsifier of 99 to 1. The mixture was then made up to 100 ml with water. This stock solution was diluted with the solvent/emulsifier/water mixture described to the concentration of active compounds stated below.
The visually determined percentages of infected leaf areas or the measured elongation were converted into efficacies in % of the untreated control:
The efficacy (E) is calculated as follows using Abbot's formula: […]
The expected efficacies of mixtures of active compounds were determined using Colby's formula (Colby, S. R. “Calculating synergistic and antagonistic responses of herbicide combinations”, Weeds, 15, pp. 20-22, 1967) and compared with the observed efficacies. […]
Leaves of potted wheat seedlings of the cultivar “Kanzler” were inoculated with a spore suspension of brown rust (Puccinia recondita). […] The extent of the rust fungus development on the leaves was then determined. The visually determined values for the percentage of infected leaf area were initially converted into a mean value and then converted into efficacies in % of the untreated control. […]

Compound	inhibition at 250 µg/mL (Conc. 0.25 mg/ml) [%]	inhibition at 60 µg/mL (Conc. 0.06 mg/ml) [%]
Fc1ccc(C2(Cn3cncn3)OC2c2ccccc2Cl)cc1 (centres unmarked) [Epoxiconazole, epoxiconazole]	11	
CCOC(=O)C1CC(=O)C(=C(O)C2CC2)C(=O)C1 (centres unmarked) [Trinexapac-ethyl, trinexapac-ethyl]		0
